Measurements reported in US20060099666A1, “Analyzer for the simultaneous enzymatic detection of closely related analytes” (Medinov, Inc., priority 2002, published 2006).
Read-outs that look alike come from different tables or passages of the source.

Columns and labels:
[1] = system: alcohol oxidase (Hansenula sp.); assay: KM by the Hanes method, electrochemistry, alcohol oxidase of Hansenula sp.; format: biochemical; details: Hansenula sp. enzyme
Procedure: (§1) The Michaelis-Menten constant (KM) of an enzyme can be determined in an aqueous environment from the initial reaction rate of the enzyme catalyzed reaction, by either calorimetric or electrochemical analysis. The initial reaction rate was determined using both methods, based on the results obtained for different concentrations of methanol and ethanol and various alcohol oxydases (Hansenula sp., Pichia pastoris and Candida boidinii). Using the Hanes method (diagram of the concentration/initial rate as a function of the initial concentration of the substrate in the reaction medium), the KM can be calculated, which corresponds to the origin of the straight line, opposite the abscissa.

[2] = molecular target: alcohol oxidase (Candida boidini) (Candida boidinii, UniProt Q00922); details: Candida boidini enzyme, electrochemistry
[3] = molecular target: alcohol oxidase (Pichia pastoris) (Komagataella phaffii, UniProt P04842); details: Pichia pastoris enzyme
Procedure: as §1

alcohol oxidase = molecular target: T1, alcohol oxidase (Komagataella phaffii, UniProt P04842); assay: Tests to improve the observed signals: effect of SDS on enzyme activity; format: biochemical; details: SDS 0.1%
T1 construct: purchased Sigma A-2404
T1 sequence (P04842 1-663): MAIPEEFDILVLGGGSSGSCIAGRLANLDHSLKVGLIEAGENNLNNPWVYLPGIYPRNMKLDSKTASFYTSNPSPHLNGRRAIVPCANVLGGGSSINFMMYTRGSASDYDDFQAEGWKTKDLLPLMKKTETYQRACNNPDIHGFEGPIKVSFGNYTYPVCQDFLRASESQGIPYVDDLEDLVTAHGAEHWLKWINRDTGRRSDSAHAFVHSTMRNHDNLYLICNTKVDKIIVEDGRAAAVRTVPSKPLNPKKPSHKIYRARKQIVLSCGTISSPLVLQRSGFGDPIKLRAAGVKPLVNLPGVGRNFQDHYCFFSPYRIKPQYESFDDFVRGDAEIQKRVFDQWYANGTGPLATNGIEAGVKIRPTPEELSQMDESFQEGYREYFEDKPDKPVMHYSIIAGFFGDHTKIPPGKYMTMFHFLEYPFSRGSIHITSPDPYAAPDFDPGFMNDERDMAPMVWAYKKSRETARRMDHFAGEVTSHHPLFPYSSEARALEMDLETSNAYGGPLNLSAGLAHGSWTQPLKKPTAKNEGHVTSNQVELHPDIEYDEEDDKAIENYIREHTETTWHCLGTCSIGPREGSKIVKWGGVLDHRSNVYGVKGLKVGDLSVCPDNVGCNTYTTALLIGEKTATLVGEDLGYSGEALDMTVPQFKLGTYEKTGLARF
Procedure: Tests aiming to improve the observed signals were carried out. Low concentrations of SDS (0.1%) allow for a uniform deposit of a sample on the surface of the working electrode, while simultaneously increasing the enzyme activity by a factor of 110%.

Sequence of alcohol oxidase (Candida boidini) (Q00922 2-663 limits assumed): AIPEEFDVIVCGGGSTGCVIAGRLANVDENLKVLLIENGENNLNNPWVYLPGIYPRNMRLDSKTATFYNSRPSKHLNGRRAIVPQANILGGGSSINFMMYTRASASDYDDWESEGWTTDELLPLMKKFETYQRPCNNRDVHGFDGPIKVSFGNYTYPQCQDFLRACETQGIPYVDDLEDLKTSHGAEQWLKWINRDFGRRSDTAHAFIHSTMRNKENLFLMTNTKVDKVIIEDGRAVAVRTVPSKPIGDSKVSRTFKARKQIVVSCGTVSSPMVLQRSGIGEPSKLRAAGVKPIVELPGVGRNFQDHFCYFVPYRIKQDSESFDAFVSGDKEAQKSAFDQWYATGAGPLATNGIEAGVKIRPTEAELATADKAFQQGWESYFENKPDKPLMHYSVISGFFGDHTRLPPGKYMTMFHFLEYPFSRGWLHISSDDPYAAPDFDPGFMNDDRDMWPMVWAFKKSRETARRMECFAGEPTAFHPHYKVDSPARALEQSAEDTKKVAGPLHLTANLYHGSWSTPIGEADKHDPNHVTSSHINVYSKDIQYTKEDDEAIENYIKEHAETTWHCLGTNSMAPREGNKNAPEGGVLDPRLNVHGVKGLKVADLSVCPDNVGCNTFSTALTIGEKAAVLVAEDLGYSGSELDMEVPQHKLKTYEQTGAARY

`CCO` [EtOH, ethanol] gave a Km ([1]; [EtOH] 0.25-5.0 mM, read-out: KM EtOH) of 6000 µM, a Km ([2]; read-out: KM EtOH, [EtOH] 0.25-1.25 mM) of 8410 µM and a Km ([3]; read-out: KM EtOH, [EtOH] 0.05-3.3 mM, colorimetry) of 3460 µM. It also gave a Km ([3]; read-out: KM EtOH, [EtOH] 0.25-5.0 mM, electrochemistry) of 2610 µM and a Km ([3]; read-out: KM EtOH, [EtOH] 2.5-10.0 mM, electrochemistry) of 2910 µM.

With `CO` [MeOH, methanol] the Km ([1]; [MeOH] 0.05-2.5 mM, read-out: KM MeOH) was 390 µM, the Km ([2]; read-out: KM MeOH, [MeOH] 0.05-0.5 mM) was 290 µM and the Km ([3]; read-out: KM MeOH, [MeOH] 0.02-2.5 mM, colorimetry) was 640 µM. For the same molecule, the Km ([3]; read-out: KM MeOH, [MeOH] 0.05-2.5 mM, electrochemistry) was 310 µM and the Km ([3]; read-out: KM MeOH, [MeOH] 0.125-1.0 mM, electrochemistry) was 560 µM.

For `CCCCCCCCCCCCOS(=O)(=O)[O-].[Na+]` [SDS], the “increasing the enzyme activity by a factor of” value (alcohol oxidase) was 110%.
